Test results published in US8653023B1, “Dual beneficial effect of dopamine enhancing and neuroprotective actions of PKC delta inhibitors for treatment of Parkinson's disease” (Iowa State University Research Foundation, Inc., priority 2006, dated 2014).
Where two headings read alike, the source gives them in different places. * marks the point of attachment. Cbz = O=C(OCc1ccccc1)*; CH2F = FC*

Tests used:
[1] = test system: dopaminergic neuronal cells; experiment: 6-OHDA-induced DNA fragmentation (genomic DNA fragmentation assay); assay type: cell-based
Description: (§1) The ability of a PKCd inhibitor to decrease PKCd activity, for example, neurodegeneration or apoptotic activity, can be assessed using standard techniques known to one skilled in the art, including commercially available assays. These include apoptotic DNA Ladder assays, Cell Death Detection ELISA^PLUS (from Roche Applied Sciences), Caspase-3 Activity Assay^PLUS (from Roche Applied Sciences), terminal deoxynucleotidyl transferase-mediated dUTP [deoxy-uridine triphosphate] nick end labeling (TUNEL) assays. DNA-binding dyes or stains such as […] or DAPI or propidium iodide may be used to assess nuclear morphology and DNA damage. Kaul S, Kanthasamy A, Kitazawa M, Anantharam V, Kanthasamy A G, Caspase-3 dependent proteolytic activation of protein kinase C delta mediates and regulates 1-methyl-4-phenylpyridinium (MPP^+)-induced apoptotic cell death in dopaminergic cells: relevance to oxidative stress in dopaminergic degeneration. Eur J Neurosci. 2003 September; 18(6):1387-401.

[2] = test system: dopaminergic neuronal cells; experiment: MPP+ induced DNA fragmentation (genomic DNA fragmentation assay); assay type: cell-based
Description: as §1

## N-benzyloxycarbonyl-Asp(OMe)-Ile-Pro-Asp(OMe)-FMK (Cbz-D(OMe)IPD(OMe)-CH2F; SMILES CC[C@H](C)[C@H](NC(=O)[C@H](CC(=O)OC)NC(=O)OCc1ccccc1)C(=O)N1CCC[C@H]1C(=O)N[C@@H](CC(=O)OC)C(=O)CF; listed as Homo sapiens)
[1]
  6-OHDA-induced DNA fragmentation: effectively blocked
[1]; concentration as low as 3 μM
  6-OHDA-induced DNA fragmentation: almost completely inhibits
[2]
  MPP+ induced DNA fragmentation: inhibited
